Patent publication US20240391881A1, “PHARMACEUTICAL USE AND PREPARATION METHOD FOR SUBSTITUTED HETEROARYL PHTHALAZINE DERIVATIVE” (ORIGIANT PHARMACEUTICAL CO., LTD., priority 2021, published 2024)

Biological target: T1, NLRP3 inflammasomes (Homo sapiens, UniProt Q96P20)
T1 construct: endogenous in cells; host or cells: THP-1 human monocytic cells, PMA-differentiated, LPS-primed, nigericin-stimulated
Assay: THP-1 pyroptosis test (cell pyroptosis test)
Assay type: cell-based
Conditions: THP-1 cells differentiated with PMA, LPS stimulation, 10 μM nigericin, drug 0.001-10 μM, MTT absorbance 562 nm
Protocol: In vitro activity screening was performed on small molecule compounds targeting inhibition on NLRP3 inflammasomes using THP-1 human monocytic cells (THP-1). THP-1 can be induced to differentiate into macrophages by phorbol ester (PMA), and the macrophages M1 can be induced to polarize by lipopolysaccharide (LPS) to release cytokines such as TNF-α, and IL-6, so as to establish a typical inflammatory model.
THP-1 cells in a logarithmic growth phase were collected to prepare a 1×10^6 cells/mL cell suspension, PMA was added to achieve a final concentration of 300 ng/mL in the cell suspension, then 1×10^5 cells were inoculated to each well of a 96-well plate, and the cells were cultured in a 37° C., 5% CO2 cell incubator for 24 hours and induced to differentiate into macrophages.
The next day, LPS was added to stimulate and induce the cells to produce an inflammatory model. […] In the 200 μL system of the 96-well plate, the final concentration of each drug was 0.001-10 μM, and the final concentration of the nigericin was 10 μM.
Cell apoptosis protection rate=[(X−C0)/(C−C0)]×100%
wherein, C, C0 and X represent average absorbance values of the normal cell group, the blank control group, and the drug treatment group, respectively. Finally, cell survival curves were fitted by Graphpad Prism 5.0 software and EC50 values of the compounds to be tested in inhibiting pyroptosis caused by NLRP3 inflammasomes were calculated.

T1 sequence (Q96P20 whole entry): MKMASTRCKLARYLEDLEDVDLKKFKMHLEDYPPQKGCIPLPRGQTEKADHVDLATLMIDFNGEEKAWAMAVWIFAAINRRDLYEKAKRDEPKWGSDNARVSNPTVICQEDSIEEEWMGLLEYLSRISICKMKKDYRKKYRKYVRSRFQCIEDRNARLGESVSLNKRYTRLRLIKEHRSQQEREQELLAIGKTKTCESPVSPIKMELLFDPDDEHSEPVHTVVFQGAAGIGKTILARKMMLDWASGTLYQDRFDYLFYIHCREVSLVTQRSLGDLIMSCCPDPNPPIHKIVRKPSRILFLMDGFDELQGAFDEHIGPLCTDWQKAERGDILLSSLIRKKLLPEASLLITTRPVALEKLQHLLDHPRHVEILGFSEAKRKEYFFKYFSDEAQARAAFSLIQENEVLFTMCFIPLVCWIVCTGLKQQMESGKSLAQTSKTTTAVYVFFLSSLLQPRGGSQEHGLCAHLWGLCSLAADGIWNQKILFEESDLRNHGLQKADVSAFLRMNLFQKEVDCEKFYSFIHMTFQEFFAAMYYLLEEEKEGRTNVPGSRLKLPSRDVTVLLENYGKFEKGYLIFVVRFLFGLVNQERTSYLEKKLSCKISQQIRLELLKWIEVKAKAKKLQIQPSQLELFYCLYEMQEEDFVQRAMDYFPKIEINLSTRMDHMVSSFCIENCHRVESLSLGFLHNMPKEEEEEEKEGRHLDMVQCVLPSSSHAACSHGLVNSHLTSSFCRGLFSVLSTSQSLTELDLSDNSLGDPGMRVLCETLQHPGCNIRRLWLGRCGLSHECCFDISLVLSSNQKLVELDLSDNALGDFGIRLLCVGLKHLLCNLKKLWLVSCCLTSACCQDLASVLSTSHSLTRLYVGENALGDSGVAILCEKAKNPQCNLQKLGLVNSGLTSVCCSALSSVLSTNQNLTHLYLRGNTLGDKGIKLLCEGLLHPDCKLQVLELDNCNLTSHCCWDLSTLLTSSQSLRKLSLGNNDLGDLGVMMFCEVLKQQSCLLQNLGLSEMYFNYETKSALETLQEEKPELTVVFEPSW

First: CN1C[C@H](Nc2nnc(-c3ccc(C(F)(F)F)cc3O)c3c2cnn3C)CCC1=O [Compound 66]
Second: CN1CC[C@@H](Nc2nnc(-c3ccc(C(F)(F)F)cc3O)c3c2cnn3C)C1 [Compound 72]
The EC50 of the first is higher: 100 to 500 nM for the first, 20 to 100 nM for the second. The second is the more potent here.

`CN1CCC[C@@H](Nc2nnc(-c3ccc(C(F)(F)F)cc3O)c3cc(P(C)(C)=O)ccc23)C1` [Compound 45, (R)-(4-(2-hydroxy-4-(trifluoromethyl)phenyl)-1-((1-methylpiperidin-3-yl)amino)phthalazin-6-yl)dimethylphosphine oxide] and `CN1CCC[C@@H](Nc2nnc(-c3ccc(C(F)(F)F)cc3O)c3ccc(P(C)(C)=O)cc23)C1` [Compound 43, (R)-(1-(2-hydroxy-4-(trifluoromethyl)phenyl)-4-((1-methylpiperidin-3-yl)amino)phthalazin-6-yl)dimethylphosphine oxide] fall in the same range of EC50: 500 to 1000 nM for the first, 500 to 1000 nM for the second.

`CC(C)N1CCC[C@@H](Nc2nnc(-c3ccc(C(F)(F)F)cc3O)c3c2cnn3C)C1` [Compound 87] and `CN1CCC[C@@H](Nc2nnc(-c3ccc(C(F)(F)F)cc3O)c3cnn(C)c23)C1` [Compound 62, (R)-2-(1-methyl-7-((1-methylpiperidin-3-yl)amino)-1H-pyrazolo[3,4-d]pyridazin-4-yl)-5-(trifluoromethyl)phenol] cannot be ordered by EC50: under 20 nM for the first, under 20 nM for the second.

`Cc1ccc2c(-c3ccc(C(F)(F)F)cc3O)nnc(N[C@@H]3CCCN(C)C3)c2c1` [Compound 4, (R)-2-(6-methyl-4-((1-methylpiperidin-3-yl)amino)phthalazin-1-yl)-5-(trifluoromethyl)phenol] and `Cc1ccc2c(N[C@@H]3CCCN(C)C3)nnc(-c3ccc(C(F)(F)F)cc3O)c2c1` [Compound 3, (R)-2-(7-methyl-4-((1-methylpiperidin-3-yl)amino)phthalazin-1-yl)-5-(trifluoromethyl)phenol] cannot be ordered by EC50: under 20 nM for the first, under 20 nM for the second.

First: CC(=O)N1CCC[C@@H](Nc2nnc(-c3ccc(C(F)(F)F)cc3O)c3ccccc23)C1 [Compound 32, (R)-1-(3-((4-(2-hydroxy-4-(trifluoromethyl)phenyl)phthalazin-1-yl)amino)piperidin-1-yl)ethane-1-one]
Second: CCN1CCC[C@@H](Nc2nnc(-c3ccc(C(F)(F)F)cc3O)c3ccccc23)C1 [Compound 23, (R)-2-(4-((1-ethylpiperidin-3-yl)amino)phthalazin-1-yl)-5-(trifluoromethyl)phenol]
The EC50 of the first is higher: 20 to 100 nM for the first, under 20 nM for the second. The second is the more potent here.

`CN1CCC[C@@H](Nc2nnc(-c3ccc(C(F)(F)F)cc3O)c3cc(F)ccc23)C1` [Compound 16, 2-(7-fluoro-4-{[(3R)-1-methylpiperidin-3-yl]amino}phthalazin-1-yl)-5-(trifluoromethyl)phenol] and `CN1CCC[C@@H](Nc2nnc(-c3ccc(C(F)(F)F)cc3O)c3cscc23)C1` [Compound 54, (R)-2-(4-((1-methylpiperidin-3-yl)amino)thieno[3,4-d]pyridazin-1-yl)-5-(trifluoromethyl)phenol] cannot be ordered by EC50: under 20 nM for the first, under 20 nM for the second.

Compared with `Cn1cnc2c(N[C@H]3CCCc4ncccc43)nnc(-c3ccc(C(F)(F)F)cc3O)c21` [Compound 79], `Oc1cc(C(F)(F)F)ccc1-c1nnc(N[C@H]2CCc3ncccc32)c2ccccc12` [Compound 30, (S)-2-(4-((6,7-dihydro-5H-cyclopenta[b]pyridin-5-yl)amino)phthalazin-1-yl)-5-(trifluoromethyl)phenol] is lower in EC50: over 1000 nM for the first, 20 to 100 nM for the second. The second is the more potent here.

First: CCN1CC[C@@H](Nc2nnc(-c3ccc(C(F)(F)F)cc3O)c3ccccc23)C1 [Compound 25, (R)-2-(4-((1-ethylpyrrolidin-3-yl)amino)phthalazin-1-yl)-5-(trifluoromethyl)phenol]
Second: CN1CCC(Nc2nnc(-c3ccc(C(F)(F)F)cc3O)c3ccccc23)CC1 [Compound 35, 2-(4-((1-methylpiperidin-4-yl)amino)phthalazin-1-yl)-5-(trifluoromethyl)phenol]
The EC50 of the first is lower: under 20 nM for the first, 500 to 1000 nM for the second. The first is the more potent here.

`Oc1cc(C(F)(F)F)ccc1-c1nnc(NCCN2CCOCC2)c2ccccc12` [Compound 21, 2-(4-((2-morpholinylethyl)amino)phthalazin-1-yl)-5-(trifluoromethyl)phenol] and `Cn1cnc2c(NCCN3CCOCC3)nnc(-c3ccc(C(F)(F)F)cc3O)c21` [Compound 76] cannot be ordered by EC50: over 1000 nM for the first, over 1000 nM for the second.

Compared with `CC(C)(O)CNc1nnc(-c2ccc(C(F)(F)F)cc2O)c2ccccc12` [Compound 20, 2-(4-((2-hydroxy-2-methylpropyl)amino)phthalazin-1-yl)-5-(trifluoromethyl)phenol], `CCN1CCC[C@@H]1CNc1nnc(-c2ccc(C(F)(F)F)cc2O)c2ccccc12` [Compound 27, (R)-2-(4-(((1-ethylpyrrolidin-2-yl)methyl)amino)phthalazin-1-yl)-5-(trifluoromethyl)phenol] is lower in EC50: over 1000 nM for the first, 500 to 1000 nM for the second.

First: CN1CC[C@@H](Oc2nnc(-c3ccc(C(F)(F)F)cc3O)c3c2ncn3C)C1 [Compound 85]
Second: CN1CCC(Nc2nnc(-c3ccc(C(F)(F)F)cc3O)c3c2cnn3C)CC1 [Compound 68]
The EC50 of the first is higher: over 1000 nM for the first, 500 to 1000 nM for the second. The second is the more potent here.

`Cc1cnc2c(N[C@@H]3CCCN(C)C3)nnc(-c3ccc(F)cc3O)c2c1` [Compound 55, (R)-5-fluoro-2-(3-methyl-8-((1-methylpiperidin-3-yl)amino)pyridino[2,3-d]pyridazn-5-yl)phenol] and `Cc1cnc2c(N[C@@H]3CCCN(C)C3)nnc(-c3ccc(C(F)(F)F)cc3O)c2c1` [Compound 48, 2-(3-methyl-8-{[(3R)-1-methylpiperidin-3-yl]amino}pyridino[2,3-d]pyridazin-5-yl)-5-(trifluoromethyl)phenol] cannot be ordered by EC50: under 20 nM for the first, under 20 nM for the second.

`C[C@@H](Nc1nnc(-c2ccc(C(F)(F)F)cc2O)c2ccccc12)c1ccccc1` [Compound 7, (R)-2-(4-((1-phenylethyl)amino)phthalazin-1-yl)-5-(trifluoromethyl)phenol] and `C[C@@H](Nc1nnc(-c2ccc(C(F)(F)F)cc2O)c2ccccc12)c1ccc(F)cc1` [Compound 9, (R)-2-(4-((1-(4-fluorophenyl)ethyl)amino)phthalazin-1-yl)-5-(trifluoromethyl)phenol] cannot be ordered by EC50: over 1000 nM for the first, over 1000 nM for the second.

Compared with `Cc1ccc(-c2nnc(N[C@@H]3CCCN(C)C3)c3cnn(C)c23)c(O)c1` [Compound 65], `CN1CCC[C@@H](Nc2nnc(-c3ccc(C(F)(F)F)cc3C(F)F)c3c2cnn3C)C1` [Compound 88] is higher in EC50: under 20 nM for the first, 20 to 100 nM for the second. The first is the more potent here.

First: Cn1cnc2c(NCCN3CCOCC3)nnc(-c3ccc(F)cc3O)c21 [Compound 82]
Second: CN1CCC[C@@H](Nc2nnc(-c3ccc(F)cc3O)c3ccccc23)C1 [Compound 44, (R)-5-fluoro-2-(4-((1-methylpiperidin-3-yl)amino)phthalazin-1-yl)phenol]
The EC50 of the first is higher: over 1000 nM for the first, 20 to 100 nM for the second. The second is the more potent here.

First: CCN1CC[C@@H](CNc2nnc(-c3ccc(C(F)(F)F)cc3O)c3c2cnn3C)C1 [Compound 71]
Second: CN1CCC(CNc2nnc(-c3ccc(C(F)(F)F)cc3O)c3c2cnn3C)CC1 [Compound 75]
The EC50 of the first is higher: over 1000 nM for the first, 100 to 500 nM for the second. The second is the more potent here.

`C[C@H](Nc1nnc(-c2ccc(C(F)(F)F)cc2O)c2ccccc12)c1ccc(F)cc1` [Compound 10, (S)-2-(4-((1-(4-fluorophenyl)ethyl)amino)phthalazin-1-yl)-5-(trifluoromethyl)phenol] and `C[C@H](Nc1nnc(-c2ccc(C(F)(F)F)cc2O)c2ccccc12)c1ccccn1` [Compound 13, (S)-2-(4-((1-(pyridin-2-yl)ethyl)amino)phthalazin-1-yl)-5-(trifluoromethyl)phenol] cannot be ordered by EC50: over 1000 nM for the first, over 1000 nM for the second.

`CN1CCC[C@@H](Nc2nnc(-c3ccc(C(F)(F)F)cc3O)c3c2nc(C(F)(F)F)n3C)C1` [Compound 58] and `Cc1cnc2c(-c3ccc(C(F)(F)F)cc3O)nnc(N[C@@H]3CCCN(C)C3)c2c1` [Compound 49, 2-(3-methyl-5-{[(3R)-1-methylpiperidin-3-yl]amino}pyridino[2,3-d]pyridazin-8-yl)-5-(trifluoromethyl)phenol] cannot be ordered by EC50: under 20 nM for the first, under 20 nM for the second.

First: CCc1cnc2c(-c3ccc(C(F)(F)F)cc3O)nnc(N[C@@H]3CCCN(C)C3)c2c1 [Compound 51, (R)-2-(3-ethyl-5-((1-methylpiperidin-3-yl)amino)pyridino[2,3-d]pyridazin-8-yl)-5-(trifluoromethyl)phenol]
Second: Cc1ccc(O)c(-c2nnc(N[C@@H]3CCCN(C)C3)c3ccccc23)c1 [Compound 47, (R)-4-methyl-2-(4-((1-methylpiperidin-3-yl)amino)phthalazin-1-yl)phenol]
The EC50 of the first is lower: 20 to 100 nM for the first, over 1000 nM for the second.

First: CN(C)[C@H]1CC[C@@H](Nc2nnc(-c3ccc(C(F)(F)F)cc3O)c3ccccc23)CC1 [Compound 19]
Second: CCN1CCC[C@H]1CNc1nnc(-c2ccc(C(F)(F)F)cc2O)c2ccccc12 [Compound 28]
The EC50 of the first is higher: 500 to 1000 nM for the first, 100 to 500 nM for the second.

In the case of `C[C@@H](Nc1nnc(-c2ccc(C(F)(F)F)cc2O)c2ccccc12)c1ccccn1` [Compound 12, (R)-2-(4-((1-(pyridin-2-yl)ethyl)amino)phthalazin-1-yl)-5-(trifluoromethyl)phenol], the EC50 is reported as over 1000 nM.
